Measured values as given in the METLIN SMRT retention time set (Domingo-Almenara et al. 2019).

Experiment: gradient 5% acetonitrile 3 min, to 50% in 2 min, to 85% in 15 min, held 3 min, 100 µL/min
Details: column: Zorbax Extend-C18 2.1 x 50 mm; eluents: water / acetonitrile, 0.1% formic acid
Method in brief: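 Data were gathered over 3 months by HPLC coupled to a quadrupole time-of-flight mass spectrometer, operated in positive and negative ionization mode. Mixtures of ~100 pure standards ran on a Zorbax Extend-C18 column (2.1 × 50 mm, 1.8 μm) at 100 μL/min, with water and acetonitrile each containing 0.1% formic acid and dead and dwell volumes of 40 μL and 900 μL. Retention time was read from adduct peaks picked by computer and checked manually.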

O=C(Nc1ccc(F)cc1)C1CC(=O)N(CCc2c[nH]c3ccc(F)cc23)C1 (stereo unspecified)
RP-LC retention time: 785 s

CCOc1ccc(-n2nnnc2CN2CCN(S(=O)(=O)c3cccs3)CC2)cc1
RP-LC retention time: 874 s

Cc1cccc(Oc2cc(N3CCC(C(=O)NCCC4=CCCCC4)CC3)ncn2)c1C
RP-LC retention time: 1110 s

Cc1nnc2ccc(-c3noc(-c4cccc5[nH]ccc45)n3)cn12
RP-LC retention time: 843 s

CCn1c(-c2nonc2N)nc2c(C#CC(C)(C)O)ncc(OC[C@H]3CCCNC3)c21
RP-LC retention time: 645 s

COCCNc1nc(-c2ccc(C)cc2)nnc1C
RP-LC retention time: 608 s

CNC(=O)CSc1nnc(N2CCN(C(=O)c3cc(=O)c4ccccc4o3)CC2)s1
RP-LC retention time: 599 s

COc1nn(C)cc1C(=O)NCC(O)c1ccc(C(F)(F)F)cc1 (stereo unspecified)
RP-LC retention time: 669 s

Cc1onc(-c2ccccc2Cl)c1C(=O)OCn1nnc2ccccc2c1=O
RP-LC retention time: 891 s

O=C(Cn1cc2c(n1)CCCCC2)Nc1ccc(Br)cc1F
RP-LC retention time: 1050 s

CC(C)(C)c1cc(C(=O)NCc2ccc(F)cc2)nc2ccnn12
RP-LC retention time: 1140 s

Cc1ccc2c(c1)N(Cc1ccc(Cl)cc1)N=C(C(=O)N1CCOCC1)S2(=O)=O
RP-LC retention time: 896 s

O=C(NC1CCCC1)N1CC(Oc2ccc(-c3nc(-c4ccccc4)no3)cc2)C1
RP-LC retention time: 1080 s

CCn1nc(-c2csc(S(=O)(=O)N3CCCCC3C)c2)ccc1=O (stereo unspecified)
RP-LC retention time: 896 s

O=C(NC1(c2nc(-c3cccnc3)no2)CCCCC1)c1ccc(Br)cc1
RP-LC retention time: 1010 s

Cc1cc(C)n(CC(=O)N2CCCn3ccnc3C2c2cnn(C)c2)n1 (stereo unspecified)
RP-LC retention time: 556 s

CSc1cccc(NC(=O)c2cn3c(n2)CSCC3)c1
RP-LC retention time: 763 s

CC1(C)CC(=O)c2cnc(N3CCN(c4ccccn4)CC3)nc2C1
RP-LC retention time: 621 s

COc1ccc(N2CCN(C(=O)CC(C)S(=O)(=O)c3ccc4c(c3)CCN4C(C)=O)CC2)cc1 (stereo unspecified)
RP-LC retention time: 754 s

CCc1cc(=O)n(CC(=O)Nc2cccc(SC)c2)c(N2CCOCC2)n1
RP-LC retention time: 846 s

Cn1cc(-c2nnc(SCC(=O)N3CCc4ccccc43)n2C)c(-c2ccccc2)n1
RP-LC retention time: 766 s

CCCNC(=O)C1CCN(c2ccc(SCC(=O)Nc3ccc4c(c3)CCC4)nn2)CC1
RP-LC retention time: 707 s

CCOc1ccc(NC(=O)c2c(O)c3cccnc3n(-c3cccc(F)c3)c2=O)cc1
RP-LC retention time: 1280 s

CCOc1cccc(-c2noc(-c3nnn4c3COC(c3ccc(F)cc3)C4)n2)c1 (stereo unspecified)
RP-LC retention time: 1190 s

CCc1noc(NC(C)=O)c1-c1ccc(OC)c(S(=O)(=O)N2CCN(c3ncccn3)CC2)c1
RP-LC retention time: 723 s

COCCCNC(=O)Cc1cn(C)c2ncccc12
RP-LC retention time: 576 s

Cc1ccc(CNC(=O)c2[nH]c3cc(C)sc3c2CN2CCOCC2)cc1
RP-LC retention time: 735 s

Cc1c(C(=O)N2CCOCC2)cnn1-c1ccc(-c2nc(C(C)(C)C)no2)cn1
RP-LC retention time: 942 s

COc1ccc(-c2noc(C3CCCN3C(=O)NC3CCCC3)n2)cc1 (stereo unspecified)
RP-LC retention time: 881 s

COc1cc(-c2nc3ccc(Cl)cn3c2Nc2ccc(Cl)cc2)ccc1O
RP-LC retention time: 746 s

COc1cc(NC(=O)CN2C(=O)CCn3nc(-c4cn(C)c5ccccc45)cc32)cc(OC)c1
RP-LC retention time: 822 s

O=S(=O)(NCCN1CCN(c2ccccc2F)CC1)c1cc(F)ccc1F
RP-LC retention time: 594 s

CN(Cc1ccsc1)C(=O)NC1CCCC1
RP-LC retention time: 792 s

CCCNC(=O)c1ccc2c(c1)CCCN2S(=O)(=O)CC
RP-LC retention time: 753 s

COC(=O)C1=CN(c2cc(Cl)c(OC)cc2OC)c2cc(F)ccc2S1(=O)=O
RP-LC retention time: 918 s

CC(C)c1noc(C2CCCCN2Cc2cc(F)cc(F)c2)n1 (stereo unspecified)
RP-LC retention time: 1170 s

CCc1noc([C@@H]2CC(F)(F)CN2C(=O)Cn2cc(C)cn2)n1
RP-LC retention time: 718 s

COC(=O)c1ccc2c(=O)n(-c3ccc(C)cc3)c(N3CCCCCC3)nc2c1
RP-LC retention time: 1340 s

Cc1ccc(C)c(NC(=O)N2CCCN(c3ccc(=O)n(-c4ccccc4)n3)CC2)c1
RP-LC retention time: 745 s

CN1c2ccc(Cl)cc2C(=O)NC12CCN(C(=O)Nc1ccccc1)CC2
RP-LC retention time: 800 s

CCN1C(=O)COc2ccc(-c3nc(NC(=O)c4cccc(Cl)c4)sc3C)cc21
RP-LC retention time: 1110 s

CCc1cc(C(=O)N2CCN(c3ccccc3)CC2)nc2ccnn12
RP-LC retention time: 814 s

CC(C)c1nncn1C1CCN(S(=O)(=O)c2cccc(F)c2)CC1
RP-LC retention time: 707 s

O=C(Nc1ccc(N2CCOCC2)cc1)c1ccc2nc(-c3ccccc3)cn2c1
RP-LC retention time: 646 s

COc1ccc(C(=O)CC2(O)C(=O)Nc3ccc(C)cc32)cc1OC (stereo unspecified)
RP-LC retention time: 670 s

CCOC(=O)c1c(NCCc2cccs2)c2cccc(Cl)c2[nH]c1=O
RP-LC retention time: 844 s

CCCN1C(=O)COc2ccc(-c3noc(-c4ccc(C)cc4)n3)cc21
RP-LC retention time: 1300 s

O=C(c1ccc2c(c1)OCO2)N1CCC2(CC1)NC(=O)N(Cc1ccccc1)C2=O
RP-LC retention time: 760 s

CC(NC(=O)C1CCN(c2cncnc2N2CCOCC2)CC1)c1ccc(F)cc1 (stereo unspecified)
RP-LC retention time: 628 s

Cc1ccc(CN2CCCn3nc(C(=O)NCCc4c[nH]c5ccc(Cl)cc45)cc3C2=O)cc1
RP-LC retention time: 953 s

CN(CC1CCOC1)C(=O)Nc1ccc(Cl)cc1 (stereo unspecified)
RP-LC retention time: 696 s

O=C(CC1=C2CCCCC2NC1=O)NCCc1c[nH]c2ccccc12 (stereo unspecified)
RP-LC retention time: 673 s

COCCc1noc(-c2ccccc2OC2CNC2)n1
RP-LC retention time: 590 s

CCc1cc(-c2csc(S(=O)(=O)N(Cc3ccccc3)C(C)C)c2)on1
RP-LC retention time: 1170 s

COc1cccc(-n2c(=O)c(C(=O)NCc3cc(F)cc(F)c3)c(O)c3cccnc32)c1
RP-LC retention time: 1170 s

CCCc1c(C(=O)O)nnn1-c1cccc(Cl)c1
RP-LC retention time: 783 s

Cc1noc(C)c1-c1ccc(S(=O)(=O)Nc2ccc(S(N)(=O)=O)cc2)cc1
RP-LC retention time: 756 s

O=C(NCc1ccc(Cl)cc1)c1cccn1-c1cccnc1
RP-LC retention time: 742 s

O=C(Nc1cnc(-c2cccnc2)nc1)C1CCCC1
RP-LC retention time: 654 s

Cc1cc(C)cc(NS(=O)(=O)c2cc3n(c2)CCN(C)C3=O)c1
RP-LC retention time: 727 s

Cc1nc(C)c(C(=O)NCC23CCCC=C2N(CC2CC2)C(=O)CC3)s1 (stereo unspecified)
RP-LC retention time: 785 s

NC(=O)C1(c2ccccc2Cl)CC1
RP-LC retention time: 692 s

Cc1cccn2c(=O)cc(OCC(=O)Nc3ccc(SC(F)F)cc3)nc12
RP-LC retention time: 771 s

COCCN1C(=O)CC[C@]2(C(=O)NCc3ccccc3Cl)CCCC[C@@H]12
RP-LC retention time: 730 s

O=c1n(CCOc2ccc(F)cc2)nc2ccc(S(=O)(=O)N3CCCC3)cn12
RP-LC retention time: 859 s

Fc1ccc(-c2noc(-c3nc(-c4ccncc4)no3)n2)cc1F
RP-LC retention time: 1040 s

COc1cccc(CNC2=NCCNC23CCN(S(=O)(=O)c2c(C)cc(C)cc2C)CC3)c1
RP-LC retention time: 826 s

O=S(=O)(c1ccc(-c2noc(-c3ccccc3Br)n2)cc1)N1CCOCC1
RP-LC retention time: 1110 s

Cc1cc(C)cc(NC(=O)CN2CCC(C(=O)NC3CC3)CC2)c1
RP-LC retention time: 564 s

OC(CN1CCN(c2ccccc2)CC1)c1ccc2c(c1)OCO2 (stereo unspecified)
RP-LC retention time: 630 s

Cc1cc(C)n2nc(SCC(=O)Nc3ccccc3)nc2n1
RP-LC retention time: 700 s

CCOc1ccc(CC(=O)NC2(c3nc(CC)no3)CCCCC2)cc1
RP-LC retention time: 940 s

COc1ccc(NC(=O)Cn2cccc2-c2nc(-c3ccc4c(c3)OCO4)no2)c(OC)c1
RP-LC retention time: 1040 s

CCC(C)NC(=O)Cn1c(=O)cc(-c2nc(C3CC3)no2)c2ccccc21 (stereo unspecified)
RP-LC retention time: 863 s

CCc1cc(C(=O)N2CCN(CC)CC2)nc2cc(-c3ccco3)nn12
RP-LC retention time: 616 s

O=S(=O)(c1ccc(Br)cc1)N1CCCC1c1nc(-c2ccc(F)cc2)no1 (stereo unspecified)
RP-LC retention time: 1160 s

O=C(NCc1ccccc1Cl)c1nnc(-c2ccc(S(=O)(=O)N3CCCCC3)cc2)o1
RP-LC retention time: 1030 s

Cc1ccc(C(=O)NC2(c3nc(-c4ccccc4)no3)CCCCC2)cc1C
RP-LC retention time: 1250 s

COc1ccc(OC)c(S(=O)(=O)N2CCCC(C)(C(=O)NCc3cccc(F)c3)C2)c1 (stereo unspecified)
RP-LC retention time: 916 s

Cc1ccc2nc(C(=O)NCc3ccccc3Cl)cn2c1
RP-LC retention time: 718 s

Cc1cc(C(F)(F)F)nn1CC(=O)N1CCc2nn(C)c(=O)n2CC1
RP-LC retention time: 659 s

COC(=O)c1ccc(NC(=O)C2c3cc(F)ccc3CCN2C(=O)OC)cc1 (stereo unspecified)
RP-LC retention time: 850 s

CCn1c(=O)c(C)nc2cc(-c3noc(-c4ccc5c(c4)OCO5)n3)ccc21
RP-LC retention time: 1030 s

Cc1nnc2ccc(NC(C)C)nn12
RP-LC retention time: 676 s

CC(O)(CNC(=O)c1cnc2ccccc2n1)c1ccccc1 (stereo unspecified)
RP-LC retention time: 734 s

CN1CCC(NC(=O)C2CCN(C(=O)c3ncn4c3COC(c3ccc(F)cc3)C4)CC2)CC1 (stereo unspecified)
RP-LC retention time: 599 s

CCOc1nc2ccccc2nc1N1CCCC(C(=O)NCc2cccc(C)c2)C1 (stereo unspecified)
RP-LC retention time: 1170 s

O=C(Cc1ccc(F)cc1)NC1CCN(c2cc(-c3cccs3)[nH]n2)C1 (stereo unspecified)
RP-LC retention time: 707 s

Cc1ccc(NC(=O)C2CCN(S(=O)(=O)c3cc(-c4noc(C5CC5)n4)ccc3C)CC2)nc1
RP-LC retention time: 868 s

O=C(Cn1ccc2ccc(N3CCCCC3)nc21)NCc1ccc(F)cc1Cl
RP-LC retention time: 991 s

O=C(Cn1nc2nc(Nc3ccc(F)cc3)ccn2c1=O)Nc1ccc(F)cc1
RP-LC retention time: 751 s
